Key:
[1] = molecular target: T1, human NK1-receptor (Homo sapiens, UniProt P25103); assay: Binding potency of the test substances to NK1-receptors in vitro ([3H]-Substance P displacement); settings: human NK1-receptor in CHO cell membranes, average of at least three measurements; for Ki: read-out: pKi, binding potency to NK1-receptors (converted)
Experimental: 1. Determination of the Binding Potency of the Test Substances to NK1-Receptors in Vitro
The affinity of test compounds for NK1-receptors can be determined by measuring the ability of the test compound to displace a radiolabeled ligand from its specific binding site. The tests were performed at Solvay Pharmaceuticals, Weesp, The Netherlands.
Separation of bound radioactivity from free radioactivity was done by filtration through glass fiber filters (Packard GF/B) with several washings with ice-cold buffer solution. Bound radioactivity was measured with a liquid scintillation counter (total binding).
The inhibition constant (Ki) was calculated according to the Cheng-Prusoff equation, and listed as its negative logarithmic value (pKi). The pKi value describes the potency of a test compound to bind to a receptor.

[2] = molecular target: T2, NK1-receptor (Cavia porcellus, UniProt P30547); assay: NK1-receptor-antagonistic effectiveness in vivo, NKA-induced early hypotension in anaesthetised guinea pigs; settings: guinea pig, NKA 200 pmol/animal i.v.; for ED50 iv after 1 min (cumulative), NK1 (early hypotension): intravenous administration
T2 construct: from tissue; host or cells: whole animal (Pirbright-White guinea pigs), in vivo
Text: (§1) 10. Determination of the NK1- and NK2-Receptor-Antagonistic Effectiveness of the Test Substances In Vivo
(§2) The NK1- and NK2-antagonistic activities of the test substances were investigated in anaesthetised guinea pigs in each case after intravenous (=i.v.) and oral (=p.o.) administration in vivo. With the present test model it is possible to detect both NK2-antagonistic effects in three different organ systems (respiratory tracts, colon and circulation) and NK1-antagonistic effects (rapid drop in blood pressure) in an animal simultaneously.
(§3) Pirbright-White guinea pigs of a body weight of 500-700 g were anaesthetised with ketamine/xylazine (67/13 mg/kg subcutaneously, initial dose, further doses administered as required). The animals were provided with an intravenous catheter in order to administer the substance and an intra-arterial catheter to measure the blood pressure. The animals were artificially ventilated via a tracheal cannula and the respiratory pressure was recorded by means of a pressure transducer. A balloon was introduced into the distal colon of the animals for manometric recording of colon motility by means of a pressure transducer. Blood pressure, heart rate, respiratory pressure and colonic pressure were measured continuously for each animal and plotted on a recorder and by means of a digital data-processing system. […] The second phase of delayed hypotension (=phase of maximum hypotension after 2-5 min.) on the other hand is mediated via NK2-receptors, since they can be blocked by specific NK2-receptor antagonists.
(§4) These ED50 values obtained from cumulative dose effect curves are plotted in Table 13.

[3] = molecular target: T3, NK2-receptor (Cavia porcellus, UniProt Q64077); assay: NK2-receptor-antagonistic effectiveness in vivo, NKA-induced late hypotension, bronchoconstriction and colonic pressure in anaesthetised guinea pigs; settings: guinea pig; for ED50 iv after 1 min (cumulative), NK2 (bronchoconstriction) / ED50 iv after 1 min (cumulative), NK2 (colonic motility) / ED50 iv after 1 min (cumulative), NK2 (late hypotension): intravenous administration
T3 construct: from tissue; host or cells: whole animal (Pirbright-White guinea pigs), in vivo
T3 sequence (Q64077 1-402): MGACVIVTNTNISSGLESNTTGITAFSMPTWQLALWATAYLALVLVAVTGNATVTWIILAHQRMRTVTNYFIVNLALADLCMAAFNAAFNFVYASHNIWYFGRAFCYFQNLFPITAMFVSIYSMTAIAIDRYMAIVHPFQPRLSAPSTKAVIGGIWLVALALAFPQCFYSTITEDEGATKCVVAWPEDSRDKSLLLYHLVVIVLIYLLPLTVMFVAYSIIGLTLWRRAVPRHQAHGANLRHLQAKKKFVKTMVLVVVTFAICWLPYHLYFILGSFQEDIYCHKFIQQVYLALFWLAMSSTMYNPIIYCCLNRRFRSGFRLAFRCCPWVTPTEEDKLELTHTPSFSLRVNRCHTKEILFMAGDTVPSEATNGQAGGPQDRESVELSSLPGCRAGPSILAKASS
Text: as §1, §2, §3, §4

[4] = molecular target: T1, human NK1-receptor; assay: Functional cellular test, Ca2+ measurements using FLIPR for NK1 activity; format: cell-based; design: expressed in transfected cells; host or cells: CHO fibroblast cells; settings: for pA2 data for NK1: CHO cells, human NK1, FLIPR Ca2+, agonist substance P 10^-8 M; for Kb: read-out: pA2 data for NK1 (converted)
Text: The NK receptor is coupled to Gq.
All steps were done under sterile conditions.

[5] = molecular target: T4, human NK2-receptor (Homo sapiens, UniProt P21452); assay: Functional cellular test, Ca2+ measurements using FLIPR for NK2 activity; settings: for pA2 data for NK2: CHO cells, human NK2, FLIPR Ca2+, agonist NKA 10^-7 M;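 for all read-outs here: CHO cells stably expressing the human receptor, loaded with a calcium dye, antagonist inhibition of ligand-evoked intracellular calcium rise read as peak fluorescence change on FLIPR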
T4 sequence (P21452 1-398): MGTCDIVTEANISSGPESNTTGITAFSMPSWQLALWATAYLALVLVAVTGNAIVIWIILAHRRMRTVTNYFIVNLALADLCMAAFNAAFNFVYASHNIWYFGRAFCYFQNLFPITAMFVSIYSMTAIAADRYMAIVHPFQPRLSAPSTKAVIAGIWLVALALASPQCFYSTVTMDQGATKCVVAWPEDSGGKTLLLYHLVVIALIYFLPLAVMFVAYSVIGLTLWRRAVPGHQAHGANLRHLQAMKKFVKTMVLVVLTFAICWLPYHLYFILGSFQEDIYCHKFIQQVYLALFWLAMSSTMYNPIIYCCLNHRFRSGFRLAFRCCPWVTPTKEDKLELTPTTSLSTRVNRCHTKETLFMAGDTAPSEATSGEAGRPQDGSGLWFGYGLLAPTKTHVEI
Experimental: Functional Cellular Tests of the NK1-, NK2- and NK3-Antagonism
Functional cellular tests of the antagonistic effect of the compounds of the present invention on the human tachykinin receptors were performed in CHO cells expressing the recombinant human NK1, NK2 or NK3-receptor. In these tests the inhibition of ligand-induced increase in mobilization of intracellular calcium and inhibition of ligand-induced phosphorylation of mitogen activated protein kinase (MAPK) were determined, which can be used as a measure of functional activity of tachykinin-antagonists. Additionally, the antagonistic properties of reference compounds on the different tachykinin receptors were characterized for comparison.
The effects of test compounds were assessed using Chinese hamster ovary (CHO) fibroblast cells, stably expressing cloned human NK1, NK2 or NK3-receptors. The NK receptor is coupled to Gq. The activation of the Gq protein by ligand binding to the receptor leads to a mobilization of intracellular calcium and phosphorylation of MAPK. Both systems were used to determine functional effects of the test compounds.
Ca^2+ Measurements Using FLIPR for NK1 and NK2 Activity
For tests, cells were seeded 24 hours prior to the experiment into black 96-well microplates. The cell density was 2.2×10^4 cells/well. All steps were done under sterile conditions. In order to observe changes in intracellular calcium levels, cells were loaded with a calcium-sensitive dye. This dye (FLUO-4, from Molecular Probes) excites at 488 nm, and emits in the 500 nm to 560 nm range, only if a complex with calcium is formed. For the dye loading the growth-medium was aspirated out of the well without disturbing the confluent cell layer and 100 μl loading medium (HBSS, 4 μM FLUO-4, 0.005% (w/v) pluronic acid, 2.5 mM probenecid, 20 mM HEPES, pH 7.4) was dispensed into each well using an automatic pipettor system (Multidrop, Labsystems). Pluronic acid was added to increase dye solubility and dye uptake into the cells, whereas probenecid, an anion exchange inhibitor, was added to the loading medium to increase dye retention in the cells. The cells were incubated in a 5% CO2 incubator at 37° C. for 40 minutes. After dye loading, the cells were washed three times with wash-buffer (HBSS, 2.5 mM probenecid, 20 mM HEPES, pH 7.4) to reduce basal fluorescence. In the last washing step the buffer was aspirated and replaced with 100 μl washing buffer. […] The FLIPR setup parameters were set to 0.4 sec exposure length, filter 1, 50 μl fluid addition, pipettor height at 125 μl, dispense speed 40 μl/sec without mixing. Maximal fluorescence changes were obtained using the statistic function of the FLIPR software, and data plotted using GraphPad Prism 4. All points were expressed as a percentage inhibition of the control agonist. IC50 values were determined using sigmoidal dose-response curve fitting. Antagonist potencies (pA2) values were calculated using equation: pA2=−log(IC50/(1+[L]/EC50)),

[6] = molecular target: T5, human NK3 receptor (Homo sapiens, UniProt P29371); assay: Binding potency of the test substances to NK3-receptors in vitro ([3H]-SR 142801 displacement); design: expressed in transfected cells; host or cells: CHO cells (membrane preparation); settings: human NK3-receptor in CHO cell membranes, [3H]-SR 142801 (osanetant), average of at least three measurements
T5 sequence (P29371 1-465): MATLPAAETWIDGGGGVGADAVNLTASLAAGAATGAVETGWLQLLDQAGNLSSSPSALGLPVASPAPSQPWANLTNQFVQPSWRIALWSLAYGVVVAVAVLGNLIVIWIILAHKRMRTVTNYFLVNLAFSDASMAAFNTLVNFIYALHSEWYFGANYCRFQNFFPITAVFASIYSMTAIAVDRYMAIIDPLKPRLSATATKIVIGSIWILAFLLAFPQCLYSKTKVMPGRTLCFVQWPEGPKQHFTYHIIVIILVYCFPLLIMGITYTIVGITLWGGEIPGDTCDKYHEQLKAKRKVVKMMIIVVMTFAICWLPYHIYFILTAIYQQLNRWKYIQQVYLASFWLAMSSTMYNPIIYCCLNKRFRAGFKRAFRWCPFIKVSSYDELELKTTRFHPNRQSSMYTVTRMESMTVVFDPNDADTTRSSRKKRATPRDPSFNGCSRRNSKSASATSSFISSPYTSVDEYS
In short: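 [3H]-osanetant displacement on membranes from CHO cells stably expressing the human receptor, with bound ligand separated by filtration and counted by scintillation. Nonspecific binding defined with 1 μmol/l unlabeled osanetant. IC50 converted to Ki by Cheng-Prusoff and reported as pKi, averaged over measurements.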

[7] = molecular target: T5, human NK3 receptor; assay: Functional cellular test, Ca2+ measurements using aequorin for NK3 activity; format: cell-based; design: expressed in transfected cells; host or cells: cell line co-expressing mitochondrially targeted apoaequorin (CHO according to b76/b77); settings: for pA2 data for NK3: cell line with human NK3 receptor and apoaequorin, agonist senktide 5x10-8 M; for Kb: read-out: pA2 data for NK3 (converted)
[8] = molecular target: T4, human NK2-receptor; assay: Binding potency of the test substances to NK2-receptors in vitro ([3H]-SR 48968 displacement); design: expressed in transfected cells; host or cells: CHO cells (membrane preparation); settings: human NK2-receptor in CHO cell membranes, [3H]-SR 48968 (saredutant), average of at least three measurements; for Ki: read-out: pKi, binding potency to NK2-receptors (converted)
In short: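 Membranes from CHO cells stably expressing the receptor were incubated with [3H]-saredutant plus test compound, then filtered and counted by liquid scintillation. Nonspecific binding defined with 0.1 μmol/l unlabeled saredutant. IC50 from displacement converted to Ki via Cheng-Prusoff and reported as pKi, averaged over measurements.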

[9] = NKA 200 pmol/animal i.v., oral administration

T1 sequence (P25103 whole entry): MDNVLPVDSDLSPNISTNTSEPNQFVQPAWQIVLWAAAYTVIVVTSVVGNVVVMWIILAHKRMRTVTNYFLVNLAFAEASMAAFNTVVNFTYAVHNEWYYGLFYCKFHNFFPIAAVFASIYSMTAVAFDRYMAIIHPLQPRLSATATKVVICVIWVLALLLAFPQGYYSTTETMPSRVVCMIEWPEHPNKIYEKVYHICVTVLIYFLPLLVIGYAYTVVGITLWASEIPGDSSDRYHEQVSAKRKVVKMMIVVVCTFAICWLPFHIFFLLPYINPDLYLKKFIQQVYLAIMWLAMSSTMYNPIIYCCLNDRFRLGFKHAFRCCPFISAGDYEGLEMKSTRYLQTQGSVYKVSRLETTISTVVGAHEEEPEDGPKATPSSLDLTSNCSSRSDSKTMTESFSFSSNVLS
T2 sequence (P30547 whole entry): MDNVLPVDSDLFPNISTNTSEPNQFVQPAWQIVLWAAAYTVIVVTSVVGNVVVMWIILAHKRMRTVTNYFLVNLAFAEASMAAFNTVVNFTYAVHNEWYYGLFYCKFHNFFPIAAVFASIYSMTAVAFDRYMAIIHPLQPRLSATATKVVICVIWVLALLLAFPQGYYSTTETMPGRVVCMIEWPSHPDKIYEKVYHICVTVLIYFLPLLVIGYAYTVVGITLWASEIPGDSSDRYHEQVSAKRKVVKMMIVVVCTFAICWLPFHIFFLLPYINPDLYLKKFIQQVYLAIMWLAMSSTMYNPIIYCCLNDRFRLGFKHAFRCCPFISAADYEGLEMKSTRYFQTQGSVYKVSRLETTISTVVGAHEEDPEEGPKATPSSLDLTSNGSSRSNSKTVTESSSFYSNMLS

CN(C)C(=O)C1(N2CCCCC2)CCN(CC[C@H](CN(C)C(=O)c2cc(F)cc(F)c2)c2ccc(Cl)c(Cl)c2)CC1 [compound 9]
pKi, binding potency to NK1-receptors [1]: 7.6 | ED50 iv after 1 min (cumulative), NK1 (early hypotension) [2]: >1.462 µmol/kg | ED50 iv after 1 min (cumulative), NK2 (bronchoconstriction) ([3]; NKA 200 pmol/animal i.v.): 0.058 µmol/kg | ED50 iv after 1 min (cumulative), NK2 (colonic motility) ([3]; NKA 200 pmol/animal i.v.): 0.053 µmol/kg | ED50 iv after 1 min (cumulative), NK2 (late hypotension) ([3]; NKA 200 pmol/animal i.v.): 0.108 µmol/kg | pA2 data for NK1 [4]: 8.0 | pA2 data for NK2 [5]: 8.6 | pKi, binding potency to NK3-receptors [6]: 8.4 | pA2 data for NK3 [7]: 8.0

CN(C)C(=O)C1(N2CCCCC2)CCN(CC[C@H](CN(C)C(=O)c2ccc(F)c(Cl)c2)c2ccc(Cl)c(Cl)c2)CC1 [compound 8]
pKi, binding potency to NK1-receptors [1]: 7.4 | ED50 iv after 1 min (cumulative), NK1 (early hypotension) [2]: >1.462 µmol/kg | ED50 AUC1-180 min oral, NK1 (early hypotension) ([2]; oral administration): >3.2 µmol/kg | ED50 iv after 1 min (cumulative), NK2 (bronchoconstriction) ([3]; NKA 200 pmol/animal i.v.): 0.731 µmol/kg | ED50 iv after 1 min (cumulative), NK2 (colonic motility) ([3]; NKA 200 pmol/animal i.v.): 0.294 µmol/kg | ED50 iv after 1 min (cumulative), NK2 (late hypotension) ([3]; NKA 200 pmol/animal i.v.): 1.113 µmol/kg | ED50 AUC1-180 min oral, NK2 (bronchoconstriction) [3, 9]: >3.2 µmol/kg | ED50 AUC1-180 min oral, NK2 (colonic motility) [3, 9]: >3.2 µmol/kg | ED50 AUC1-180 min oral, NK2 (late hypotension) [3, 9]: >3.2 µmol/kg | oral activity on the NK2, in words ([3]; oral administration): active orally on the NK2 | pA2 data for NK1 [4]: 7.1 | pA2 data for NK2 [5]: 8.6 | pA2 data for NK3 [7]: 8.4

CN(C)C(=O)C1(N2CCCCC2)CCN(CC[C@H](CN(C)C(=O)c2ccc(F)c(F)c2F)c2ccc(Cl)c(Cl)c2)CC1 [compound 16]
ED50 iv after 1 min (cumulative), NK1 (early hypotension) [2]: >1.462 µmol/kg | ED50 iv after 1 min (cumulative), NK2 (bronchoconstriction) ([3]; NKA 200 pmol/animal i.v.): 0.38 µmol/kg | ED50 iv after 1 min (cumulative), NK2 (colonic motility) ([3]; NKA 200 pmol/animal i.v.): 0.132 µmol/kg | ED50 iv after 1 min (cumulative), NK2 (late hypotension) ([3]; NKA 200 pmol/animal i.v.): 0.34 µmol/kg | pA2 data for NK2 [5]: 8.3 | pKi, binding potency to NK2-receptors [8]: 9.0 | pKi, binding potency to NK3-receptors [6]: 7.8 | pA2 data for NK3 [7]: 7.9

CN(C[C@@H](CCN1CCC(C(=O)N2CCCC2)(N2CCCC2)CC1)c1ccc(Cl)c(Cl)c1)C(=O)c1ccccc1 [compound 103, N-{(2S)-2-(3,4-dichlorophenyl)-4-[4-pyrrolidin-1-yl-4-(pyrrolidin-1-ylcarbonyl)piperidin-1-yl]butyl}-N-methylbenzamide]
Ki [1]: 50.1 nM | Kb [4]: 31.6 nM | Kb [5]: 2 nM | Ki [8]: 2 nM | Kb [7]: 50.1 nM

CN(C)C(=O)C1(N2CCCCC2)CCN(CCC(CN(C)C(=O)c2cc(Cl)ccc2F)c2ccc(Cl)c(Cl)c2)CC1 (stereo not drawn) [compound 10]
Ki [1]: 79.4 nM | Kb [4]: 79.4 nM | Kb [5]: 3.98 nM | Ki [8]: 1.26 nM | Ki ([6]; read-out: pKi, binding potency to NK3-receptors (converted)): 10 nM | Kb [7]: 5.01 nM

CCC(=O)N(CC1CC1)C1CCN(CC[C@H](CN(C)C(=O)c2ccccc2)c2ccc(Cl)c(Cl)c2)CC1 [compound 105, N-[(2S)-4-{4-[(cyclopropylmethyl)(Propionyl)-amino]piperidin-1-yl}-2-(3,4-dichlorophenyl)butyl]-N-methylbenzamide]
Ki [1]: 25.1 nM | Kb [4]: 31.6 nM | Kb [5]: 0.0794 nM | Ki [8]: 2 nM | Kb [7]: 100 nM

CN(C[C@@H](CCN1CCC(C(=O)N2CCCC2)(N2CCCC2)CC1)c1ccc(Cl)c(Cl)c1)C(=O)c1cc(C#N)cc2ccccc12 [compound 102, 3-cyano-N-{(2S)-2-(3,4-dichlorophenyl)-4-[4-pyrrolidin-1-yl-4-(pyrrolidin-1-ylcarbonyl)piperidin-1-yl]butyl}-N-methyl-1-naphthamide]
Ki [1]: 2 nM | Kb [4]: 2 nM | Kb [5]: 39.8 nM | Ki [8]: 5.01 nM | Kb [7]: 39.8 nM

— patent US20070219214A1, “Dual NK2/NK3-antagonists, pharmaceutical compositions comprising them, and processes for their preparation” (Solvay pharmaceuticals GmbH, priority 2006, published 2007)
